According to patent publication US20260272878A1, “ADAR1 INHIBITORS AND USES THEREOF” (THE WISTAR INSTITUTE OF ANATOMY AND BIOLOGY, priority 2023, published 2026):
Entries after “also recorded” stand apart in the source; their conditions may differ.

What was measured:
ADAR1p110-WT = molecular target: T1, ADAR1p110-WT (Homo sapiens, UniProt P55265); assay: Biacore SPR binding to ADAR1p110-WT
T1 construct: made in house; host or cells: Sf9 cells (baculovirus)
T1 sequence (P55265 1-931 isoform P55265-5): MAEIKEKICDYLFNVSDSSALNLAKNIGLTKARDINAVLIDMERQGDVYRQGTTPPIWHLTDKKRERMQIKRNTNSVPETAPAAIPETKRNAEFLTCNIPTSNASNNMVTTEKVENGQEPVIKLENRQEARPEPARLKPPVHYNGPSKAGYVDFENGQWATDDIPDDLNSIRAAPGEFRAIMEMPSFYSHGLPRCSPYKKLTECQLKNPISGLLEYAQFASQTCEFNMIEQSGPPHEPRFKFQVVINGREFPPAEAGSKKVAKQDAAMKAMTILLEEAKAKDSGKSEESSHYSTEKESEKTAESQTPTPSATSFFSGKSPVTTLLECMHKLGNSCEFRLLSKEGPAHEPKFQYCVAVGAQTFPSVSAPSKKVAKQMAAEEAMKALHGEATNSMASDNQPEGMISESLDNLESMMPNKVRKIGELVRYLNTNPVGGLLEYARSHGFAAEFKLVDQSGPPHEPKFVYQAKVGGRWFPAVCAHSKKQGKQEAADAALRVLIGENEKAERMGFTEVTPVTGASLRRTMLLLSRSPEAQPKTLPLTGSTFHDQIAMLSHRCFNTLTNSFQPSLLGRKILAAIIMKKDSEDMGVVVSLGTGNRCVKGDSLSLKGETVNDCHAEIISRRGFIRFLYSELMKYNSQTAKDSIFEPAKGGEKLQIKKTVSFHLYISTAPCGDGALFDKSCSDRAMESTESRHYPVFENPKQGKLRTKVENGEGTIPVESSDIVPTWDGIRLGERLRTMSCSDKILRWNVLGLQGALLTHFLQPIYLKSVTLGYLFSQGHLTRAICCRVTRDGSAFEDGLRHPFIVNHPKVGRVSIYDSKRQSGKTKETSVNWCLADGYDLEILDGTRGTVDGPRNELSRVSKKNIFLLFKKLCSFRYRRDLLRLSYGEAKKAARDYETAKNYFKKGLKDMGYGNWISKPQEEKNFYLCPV
Excerpt: FIGS. 5A-5D show Biacore SPR analysis for binding of ADAR1i to ADAR1p110. (FIG. 5A) SPR analysis for binding kinetics of 8 compounds to ADAR1p110-WT. ADAR1 inhibition positive (ADAR1i-13, ADAR1i-120, ADAR1i-124) and negative compounds. (FIG. 5B, FIG. 5C) […] of SPR analysis for binding of ADAR1i-13 and ADAR1i-124 to ADAR1p110-WT and ADAR1p110-E912A as well as negative control proteins, GAPDH and HuR, are shown. […] ADAR1-E912, equivalent of ADAR2 E396, is located in the catalytic center.
No complete 3-D structure of ADAR1 is currently available. […] The glutamate E912 and E396 in ADAR1 and ADAR2, respectively, plays an important proton transfer function during hydrolytic deamination reaction (42, 43).

ADAR2 = molecular target: T2, ADAR2 (Homo sapiens, UniProt P78563); assay: In vitro editing assay, ADAR2; assay type: biochemical; details: ADAR2 mediated A-to-I editing in vitro
T2 sequence (P78563 1-741): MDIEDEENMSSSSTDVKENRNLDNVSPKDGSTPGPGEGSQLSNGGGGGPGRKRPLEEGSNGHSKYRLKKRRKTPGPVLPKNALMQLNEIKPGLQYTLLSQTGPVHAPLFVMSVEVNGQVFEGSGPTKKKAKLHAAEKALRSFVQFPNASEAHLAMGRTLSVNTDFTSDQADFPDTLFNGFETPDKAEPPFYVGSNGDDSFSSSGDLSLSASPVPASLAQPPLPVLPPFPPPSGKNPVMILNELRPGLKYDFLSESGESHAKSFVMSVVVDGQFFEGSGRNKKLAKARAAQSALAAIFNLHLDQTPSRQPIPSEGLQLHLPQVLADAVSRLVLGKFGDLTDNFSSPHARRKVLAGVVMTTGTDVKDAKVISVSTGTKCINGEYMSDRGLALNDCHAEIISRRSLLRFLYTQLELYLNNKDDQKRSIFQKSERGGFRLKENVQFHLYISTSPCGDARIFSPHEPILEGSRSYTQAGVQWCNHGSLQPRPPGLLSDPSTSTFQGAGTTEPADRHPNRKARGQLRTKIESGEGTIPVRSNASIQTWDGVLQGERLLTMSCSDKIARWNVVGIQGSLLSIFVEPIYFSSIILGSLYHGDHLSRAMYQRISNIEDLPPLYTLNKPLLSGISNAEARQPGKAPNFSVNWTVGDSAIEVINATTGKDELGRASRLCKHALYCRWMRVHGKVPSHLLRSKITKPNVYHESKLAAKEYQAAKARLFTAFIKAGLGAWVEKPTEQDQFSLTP

[1] = tested on: HeLa non-ALT cancer cells; assay: Cancer cell killing / viability (Apo Tox-Glo), HeLa; assay type: cell-based, human; details: for Killing of HeLa cells: result in words
Procedure: FIGS. 8A-8C show analysis of ADAR1i-124 effects in cancer cells. […] Viability was examined using the Apo Tox-Glo assay system. Control, 0.3% DMSO. Data: mean±SD (n=3). Significant differences identified by two-tailed Student's t-tests: *P<0.05, n.s., not significant. (FIG. 8B) Western blotting analysis of HeLa cells treated with ADAR1i-124 (10 μM).
FIGS. 9A-9C show dose-dependent killing of cancer cells and activation of IFN signaling. […] YUMM1.7 (FIG. 9B) and HGS2 cells (FIG. 9C) were treated with ADAR1i-124 at 10 μM (12 hrs). RNA samples were analyzed by qRT-PCR to monitor ISG expression levels. Data: mean±SD (n=3). Significant differences were identified by two-tailed Student's t-tests: ***P<0.001.
Dose-dependent selective killing of telomerase reactivated cancer cells was determined (FIG. 9A).

| Structure (SMILES) | Binding to ADAR1p110-WT (ADAR1p110-WT) | ADAR2 inhibitory activity (ADAR2) | Killing of HeLa cells [1] | Viability of HeLa cells ([1]; 10 μM, Apo Tox-Glo, control 0.3% DMSO) | IC50 ([1]; Homo sapiens, HeLa, read-out: IC50 for selective killing of HeLa cells) |
| --- | --- | --- | --- | --- | --- |
| N#Cc1ccc(NC(=O)c2sc3ccccc3c2Cl)cc1 [ADAR1i-13, 3-chloro-N-(4-cyanophenyl)-1-benzothiophene-2-carboxamide] | direct binding | No ADAR2 inhibitory activity was detected; also recorded: did not inhibit ADAR2 mediated A-to-I editing in vitro | killed selectively | – | – |
| N#Cc1ccccc1NC(=O)c1sc2ccccc2c1Cl [ADAR1i-120] | direct binding | No ADAR2 inhibitory activity was detected | killed selectively | – | – |
| N#Cc1ccc(NC(=O)c2c(Cl)c3ccccc3n2CO)cc1 [ADAR1i-124] | direct binding | No ADAR2 inhibitory activity was detected; also recorded: did not inhibit ADAR2 mediated A-to-I editing in vitro; also recorded: No ADAR2 inhibition detected | killed selectively; also recorded: dose-dependently killed | selectively reduced viability | ~400 nM |
